From US20170327556A1, “CARTILAGE-BINDING FUSION PROTEINS” (Merrimack Pharmaceuticals, Inc., priority 2013, published 2017)

Experiments:
[1] = ELISA binding of fusion proteins to heparan sulfate coated plates; conditions: 6x-Histidine-tagged proteins, FIG. 1A
Procedure: (§1) The specificity of binding of fusion proteins to the polysaccharides heparan sulfate and chondroitin sulfate may be determined by measuring the ability of the proteins to bind polysaccharides coated on an ELISA plate. Heparin Binding Plates (BD Biosciences) are coated with 50 μl of 2-10 μg/mL concentration of heparan sulfate or chondroitin sulfate (Sigma-Aldrich®) and incubated overnight at room temperature. Plates are washed with PBS and blocked with 250 μl of 0.2% gelatin in PBS for 1 hour at 37 C. Plates are then washed with PBS and tapped dry. 50 μl of protein in a dilution series is added to the wells and incubated for 2 hours at 37 C. The protein dilution series starts from 100 nM and includes ten additional three-fold dilutions in PBS, 0.2% gelatin and one blank (PBS, 0.2% gelatin only). After the plates are washed in PBS, 50 μl of anti-human IGF-1 (Abcam) at 1:250 in PBST is added and the plates are incubated for 1 hour rotating at room temperature. Plates are washed with PBST and 100 μl of 1:1000 anti-Rabbit-HRP (Cell Signaling Technology®) in PBST is added to each well and the plate is incubated for 1 hour at room temperature. […] The absorbance is measured at 450 nm and the resulting data is analyzed using GraphPad Prism® (GraphPad Software, San Diego, Calif.). […]

[2] = ELISA binding of fusion proteins to chondroitin sulfate coated plates; conditions: 6x-Histidine-tagged proteins, FIG. 1B
Procedure: as §1

[3] = Stability of GF-Fus3 in human synovial fluid (western blot); format: in vitro ADME
Procedure: Synovial fluid was harvested from two human donors (see Table 14) within 24 hours of death, flash frozen and stored at −80° C. 2 μL of GF-Fus3 (0.45 mg/mL in PBS, Life Technologies Cat#10010-031) was added to 18 pt of synovial fluid (final GF-Fus3 concentration is 45 μg/mL) in a sealed 200 μL PCR tube and incubated at 37° C. for 0, 24, 48, 72, or 96 hours. Samples were diluted 1:10 in PBS and 10 μL (45 ng of GF-Fus3) was mixed with 3.3 μL of NuPAGE LDS Sample Buffer (Life Technologies, Cat# NP0007). GF-Fus3 standards were prepared at 100, 200, 400, 800, and 1600 ng/mL and 10 μL of each solution was mixed with 3.3 uL of NuPAGE LDS Sample Buffer. All samples and standards were loaded onto a 4-12% NuPAGE Bis-Tris Gel (Life Technologies, Cat# NP0321BOX), and run in NuPAGE MES SDS Running Buffer (Life Technologies, Cat# NP0002). Protein was transferred to a nitrocellulose membrane using an iBlot kit (Life Technologies, Cat# IB301001). Membrane was blocked in Odyssey Blocking Buffer (LI-COR, Cat#927-40000) for 1 hour at room temperature with agitation. Membrane was washed twice in PBS with 0.05% Tween20 (PBS-T) and incubated in 2 μg/mL anti-IGF-1 antibody (Millipore, Cat#05-172) overnight at 4° C. Membrane was washed three times in PBS-T and incubated with IRDye 800CW goat anti-mouse antibody (LI-COR, Cat#827-08364) diluted 1:2000 for 1 hour at room temperature. […]

**Q.** Which “binding to heparan sulfate” value [1] does the source give for “GF-Fus3: C-terminal fusion IGF-1(LR3)-PRELP heparin binding domain” here?
**A.** bound

**Q.** What about the “binding to chondroitin sulfate” value [2] of the same substance?
**A.** bound

**Q.** And the “protein degradation band at less than 7.5 kDa” value ([3]; 45 ng loaded, after incubation in synovial fluid at 37° C.)?
**A.** ≤ 1 ng

**Q.** What about the “protein degradation in synovial fluid” value ([3]; 96 hours of 37° C. incubation, donors with grade 1 and grade 3 cartilage degeneration) of the same substance?
**A.** minimal protein degradation
